Experimental data as given in US11578343B2, “CAS9 proteins including ligand-dependent inteins” (President and Fellows of Harvard College, priority 2014, dated 2023).

Key:
Type in all cases: cell-based, human
CLTA Off 1 = experiment: High-throughput DNA sequencing of genome modifications; conditions: 500 ng Cas9 plasmid; for Mod. Freq (indels/total sequences), CLTA Off 1: Table 4
Experimental: (§1) We assayed these Cas9:sgRNA combinations in human cells for their ability to modify the three on-target loci as well as 11 known off-target genomic sites (Table 3)^4,5,10,13. Cells were treated with or without 1 μM 4-HT during transfection, and after 12 h the media was replaced with fresh media lacking 4-HT. […] Genomic DNA was isolated 60 h post-transfection and analyzed by high-throughput DNA sequencing
(§2) High-throughput DNA sequencing of genome modifications. HEK293-GFP stable cells were transfected with plasmids expressing Cas9 (500 ng) and sgRNA (125 ng) as described above. […] 4-HT (1 μM final), where appropriate, was added during transfection. 12 h after transfection, the media was replaced with full serum media without 4-HT. Genomic DNA was isolated and pooled from three biological replicates 60 h after transfection using a previously reported^11 protocol with a DNAdvance Kit (Agencourt). 150 ng or 200 ng of genomic DNA was used as a template to amplify by PCR the on-target and off-target genomic sites with flanking HTS primer pairs described previously^11. PCR products were purified using RapidTips (Diffinity Genomics) and quantified using the PicoGreen dsDNA Assay Kit (Invitrogen). Purified DNA was PCR amplified with primers containing sequencing adaptors, purified with the MinElute PCR Purification Kit (Qiagen) and AMPure XP PCR Purification (Agencourt). Samples were sequenced on a MiSeq high-throughput DNA sequencer (Illumina), and sequencing data was analyzed as described previously^4.
(§3) Sensitivity limit of off-target cleavage assays. We used paired end sequencing to identify indels caused by genomic on- and off-target cleavage. […] A 1 ng sample of human gDNA represents only ˜330 unique genomes, and thus only ˜330 unique copies of each genomic site are present. PCR amplification for each genomic target was performed on a total of 150 ng or 200 ng of input gDNA, which provides amplicons derived from at most 50,000 or 65,000 unique gDNA copies, respectively. Therefore, the high-throughput sequencing assay cannot detect rare genome modification events that occur at a frequency of less than approximately 1 in 50,000 (0.002%). When comparing between two conditions, such as wt Cas9 vs. intein-Cas9, this threshold becomes approximately 10 in 50,000 (0.02%) when using the Fisher exact test and a conservative multiple comparison correction (Bonferroni with 14 samples). See also Minoche, A. E., Dohm, J. C., & Himmelbauer, H. Evaluation of genomic high-throughput sequencing data generated on Illumina HiSeq and Genome Analyzer systems. Genome Biology 12, R112 (2011).

CLTA Off 2 = experiment: as above; conditions: 500 ng Cas9 plasmid; for Mod. Freq (indels/total sequences), CLTA Off 2: Table 4
Experimental: as §1, §2, §3

CLTA Off 3 = experiment: as above; conditions: 500 ng Cas9 plasmid; for Mod. Freq (indels/total sequences), CLTA Off 3: Table 4
Experimental: as §1, §2, §3

CLTA On = experiment: as above; conditions: 500 ng Cas9 plasmid; for Mod. Freq (indels/total sequences), CLTA On: Table 4
Experimental: as §1, §2, §3

EMX Off 1 = experiment: as above; conditions: 500 ng Cas9 plasmid; for Mod. Freq (indels/total sequences), EMX Off 1: Table 4
Experimental: as §1, §2, §3

EMX Off 2 = experiment: as above; conditions: 500 ng Cas9 plasmid; for Mod. Freq (indels/total sequences), EMX Off 2: Table 4
Experimental: as §1, §2, §3

EMX Off 3 = experiment: as above; conditions: 500 ng Cas9 plasmid; for Mod. Freq (indels/total sequences), EMX Off 3: Table 4
Experimental: as §1, §2, §3

EMX Off 4 = experiment: as above; conditions: 500 ng Cas9 plasmid; for Mod. Freq (indels/total sequences), EMX Off 4: Table 4
Experimental: as §1, §2, §3

EMX On = experiment: as above; conditions: 500 ng Cas9 plasmid; for Mod. Freq (indels/total sequences), EMX On: Table 4; for Mod Freq (indels/total sequences), EMX On: +4-HT, Table 6
Experimental: as §1, §2, §3

VEGF Off 1 = experiment: as above; conditions: 500 ng Cas9 plasmid; for Mod. Freq (indels/total sequences), VEGF Off 1: Table 4
Experimental: as §1, §2, §3

VEGF Off 2 = experiment: as above; conditions: 500 ng Cas9 plasmid; for Mod. Freq (indels/total sequences), VEGF Off 2: Table 4
Experimental: as §1, §2, §3

VEGF Off 3 = experiment: as above; conditions: 500 ng Cas9 plasmid; for Mod. Freq (indels/total sequences), VEGF Off 3: Table 4
Experimental: as §1, §2, §3

VEGF Off 4 = experiment: as above; conditions: 500 ng Cas9 plasmid; for Mod. Freq (indels/total sequences), VEGF Off 4: Table 4
Experimental: as §1, §2, §3

VEGF On = experiment: as above; conditions: 500 ng Cas9 plasmid; for Mod. Freq (indels/total sequences), VEGF On: Table 4
Experimental: as §1, §2, §3

[1] = system: EMX, VEGF, and CLTA genomic loci; experiment: High-throughput DNA sequencing of genome modifications, summary over on-target and off-target sites
Experimental: as §1, §2, §3

Substance: intein(Cys574)-Cas9: Cas9 with 37R3-2 intein replacing Cys574 (SEQ ID NO: 33)
- Mod. Freq (indels/total sequences), CLTA Off 1 (CLTA Off 1; +4-HT (1 μM, 12 h)): 0.04%
- Mod Freq (indels/total sequences), CLTA Off 1 (CLTA Off 1; +4-HT, Table 6): 0.03%
- Mod. Freq (indels/total sequences), CLTA Off 1 (CLTA Off 1; −4-HT): 0.01%
- Mod. Freq (indels/total sequences), CLTA Off 2 (CLTA Off 2; +4-HT (1 μM, 12 h)): 0.02%
- Mod Freq (indels/total sequences), CLTA Off 2 (CLTA Off 2; +4-HT, Table 6): 0.00%
- Mod. Freq (indels/total sequences), CLTA Off 2 (CLTA Off 2; −4-HT): 0.00%
- Mod. Freq (indels/total sequences), CLTA Off 3 (CLTA Off 3; +4-HT (1 μM, 12 h)): 0.01%
- Mod Freq (indels/total sequences), CLTA Off 3 (CLTA Off 3; +4-HT, Table 6): 0.01%
- Mod. Freq (indels/total sequences), CLTA Off 3 (CLTA Off 3; −4-HT): 0.00%
- Mod. Freq (indels/total sequences), CLTA On (CLTA On; +4-HT (1 μM, 12 h)): 7.65%
- Mod Freq (indels/total sequences), CLTA On (CLTA On; +4-HT, Table 6): 6.35%
- Mod. Freq (indels/total sequences), CLTA On (CLTA On; −4-HT): 1.81%
- Mod. Freq (indels/total sequences), EMX Off 1 (EMX Off 1; +4-HT (1 μM, 12 h)): 0.27%
- Mod Freq (indels/total sequences), EMX Off 1 (EMX Off 1; +4-HT, Table 6): 0.17%
- Mod. Freq (indels/total sequences), EMX Off 1 (EMX Off 1; −4-HT): 0.01%
- Mod. Freq (indels/total sequences), EMX Off 2 (EMX Off 2; +4-HT (1 μM, 12 h)): 0.04%
- Mod Freq (indels/total sequences), EMX Off 2 (EMX Off 2; +4-HT, Table 6): 0.02%
- Mod. Freq (indels/total sequences), EMX Off 2 (EMX Off 2; −4-HT): 0.01%
- Mod. Freq (indels/total sequences), EMX Off 3 (EMX Off 3; +4-HT (1 μM, 12 h)): 0.29%
- Mod Freq (indels/total sequences), EMX Off 3 (EMX Off 3; +4-HT, Table 6): 0.25%
- Mod. Freq (indels/total sequences), EMX Off 3 (EMX Off 3; −4-HT): 0.02%
- Mod. Freq (indels/total sequences), EMX Off 4 (EMX Off 4; +4-HT (1 μM, 12 h)): 1.13%
- Mod Freq (indels/total sequences), EMX Off 4 (EMX Off 4; +4-HT, Table 6): 0.85%
- Mod. Freq (indels/total sequences), EMX Off 4 (EMX Off 4; −4-HT): 0.09%
- Mod. Freq (indels/total sequences), EMX On (EMX On; +4-HT (1 μM, 12 h)): 9.47%
- Mod Freq (indels/total sequences), EMX On (EMX On; listed as intein-Cas9 (C574)): 6.42%
- Mod Freq (indels/total sequences), EMX On (EMX On; listed as intein-Cas9(C574)): 6.4%
- Mod. Freq (indels/total sequences), EMX On (EMX On; −4-HT): 0.99%
- Mod. Freq (indels/total sequences), VEGF Off 1 (VEGF Off 1; +4-HT (1 μM, 12 h)): 4.68%
- Mod Freq (indels/total sequences), VEGF Off 1 (VEGF Off 1; +4-HT, Table 6): 3.18%
- Mod. Freq (indels/total sequences), VEGF Off 1 (VEGF Off 1; −4-HT): 0.29%
- Mod. Freq (indels/total sequences), VEGF Off 2 (VEGF Off 2; +4-HT (1 μM, 12 h)): 0.77%
- Mod Freq (indels/total sequences), VEGF Off 2 (VEGF Off 2; +4-HT, Table 6): 0.38%
- Mod. Freq (indels/total sequences), VEGF Off 2 (VEGF Off 2; −4-HT): 0.05%
- Mod. Freq (indels/total sequences), VEGF Off 3 (VEGF Off 3; +4-HT (1 μM, 12 h)): 0.19%
- Mod Freq (indels/total sequences), VEGF Off 3 (VEGF Off 3; +4-HT, Table 6): 0.07%
- Mod. Freq (indels/total sequences), VEGF Off 3 (VEGF Off 3; −4-HT): 0.01%
- Mod. Freq (indels/total sequences), VEGF Off 4 (VEGF Off 4; +4-HT (1 μM, 12 h)): 1.40%
- Mod Freq (indels/total sequences), VEGF Off 4 (VEGF Off 4; +4-HT, Table 6): 0.91%
- Mod. Freq (indels/total sequences), VEGF Off 4 (VEGF Off 4; −4-HT): 0.07%
- Mod. Freq (indels/total sequences), VEGF On (VEGF On; +4-HT (1 μM, 12 h)): 3.03%
- Mod Freq (indels/total sequences), VEGF On (VEGF On; +4-HT, Table 6): 2.31%
- Mod. Freq (indels/total sequences), VEGF On (VEGF On; −4-HT): 0.85%
- Off-target modification frequency, average fold lower than wild-type Cas9 (80 ng) ([1]; EMX locus, all four off-target sites, +4-HT, similar on-target cleavage): 4 fold
- Activity compared to wild-type Cas9 ([1]; absence of 4-HT): much less active
- Activity compared to wild-type Cas9 ([1]; presence of 4-HT): slightly less active than wild-type Cas9
